{"source": "patent US5968926A", "about": "“Antipsychotic method” (Novo Nordisk A/S, priority 1995, dated 1999)", "note": "Counter-ions that a name gives are not always drawn."}
{"system": "not given", "assay": "not given", "conditions": "blood samples of treated patients, 17 patients, trial terminated; cited from earlier work"}
{"compound": "Cc1cc2c(s1)Nc1ccc(F)cc1N=C2N1CCN(C)CC1", "note": "[flumezapine, 7-fluoro-2-methyl-10-(4-methyl-1-piperazinyl)-4H-thieno[2,3-b][1,5]-benzodiazepine]", "enzyme levels: creatinine phosphokinase (CPK), SGOT, SGPT": "in substantial excess of normal values"}
{"system": "conditioned avoidance responding", "assay": "Conditioned avoidance behavior in rats", "assay_type": "in vivo, rat", "conditions": "3.0 mg/kg s.c. 30 min before session, 50 trials", "from_the_text": "(§1) In a conditioned avoidance test, animals learn to respond during a conditioned stimulus in order to avoid mild shock presentation. A response during the conditioned stimulus is termed an avoidance respone, a response during shock is termed an escape response; a response failure is when the animal fails to respond during either the conditioned stimlus or the shock presentation and is indicative of motor impairment. […] Antipsychotic drugs decrease the percentage of avoidance responses without interfering with the ability of the animal to respond since the animals do emit escape responses. The percentage of response failures is considered a measure of motor impairment.\n(§2) Rats were required to press a response lever in an experimental chamber in order to avoid or escape foot-shock. Each experimental session consisted of 50 trials. During each trial, the chamber was illuminated and a tone presented for a maximum of 10 sec. A response during the tone immediately terminated the tone and the houselight, ending the trial. In the absence of a response during the tone alone, tone+foot-shock (2.0 mA) was presented for a maximum of 10 sec. A response during shock presentation immediately terminated the shock, the tone and the houselight, ending the trial.\n(§3) For drug screening, a dose of 3.0 mg/kg was administered s.c. 30 min before the start of the experimental session.", "units": {"Conditioned Avoidance % Avoidance Responses": "%"}}
{"compound": "CCOc1nsnc1[C@H]1CN2CCC[C@H]1C2", "note": "(relative stereo) [Compound 19, Exo-6-(3-ethoxy-1,2,5-thiadiazol-4-yl)-1-azabicyclo[3.2.1]octane oxalate]", "Conditioned Avoidance % Avoidance Responses": 73}
{"compound": "CCCCSc1nsnc1[C@H]1CN2CCC[C@H]1C2", "note": "(relative stereo) [Compound 30, Exo-6-(3-butylthio-1,2,5-thiadiazol-4-yl)-1-azabicyclo[3.2.1]octane oxalate]", "Conditioned Avoidance % Avoidance Responses": 32}
{"compound": "CCSc1nsnc1[C@H]1CN2CCC[C@H]1C2", "note": "(relative stereo) [Compound 32, Exo-6-(3-ethylthio-1,2,5-thiadiazol-4-yl)-1-azabicyclo[3.2.1]octane oxalate]", "Conditioned Avoidance % Avoidance Responses": 46}
{"compound": "CCCSc1nsnc1[C@H]1CN2CCC[C@H]1C2", "note": "(relative stereo) [Compound 58, Exo-6-(3-propylthio-1,2,5-thiadiazol-4-yl)-1-azabicyclo[3.2.1]octane oxalate]", "Conditioned Avoidance % Avoidance Responses": 41}
{"compound": "CSc1nsnc1[C@H]1CN2CCC[C@H]1C2", "note": "(relative stereo) [Compound 74, Exo-6-(3-methylthio-1,2,5-thiadiazol-4-yl)-1-azabicyclo[3.2.1]octane oxalate]", "Conditioned Avoidance % Avoidance Responses": 22}
{"compound": "N#Cc1ccc(CSc2nsnc2[C@H]2CN3CCC[C@H]2C3)cc1", "note": "(relative stereo) [Compound 82, Exo-6-(3-(4-cyanobenzylthio)-1,2,5-thiadiazol-4-yl)-1-azabicyclo[3.2.1]octane oxalate]", "Conditioned Avoidance % Avoidance Responses": 24}
{"compound": "CCCOc1nsnc1[C@H]1CN2CCC[C@H]1C2", "note": "(relative stereo) [Compound 119, Exo-6-(3-propoxy-1,2,5-thiadiazol-4-yl)-1-azabicyclo[3.2.1]octane oxalate]", "Conditioned Avoidance % Avoidance Responses": 29}
{"compound": "CCCCOc1nsnc1[C@H]1CN2CCC[C@H]1C2", "note": "(relative stereo) [Compound 120, Exo-6-(3-butoxy-1,2,5-thiadiazol-4-yl)-1-azabicyclo[3.2.1]octane oxalate]", "Conditioned Avoidance % Avoidance Responses": 27}
{"compound": "CCCCSc1nsnc1C1CN2CCC1CC2.O=C(O)C(O)C(O)C(=O)O", "note": "(single isomer, unassigned) [Compound 56, (+) 3-(3-Butylthio-1,2,5-thiadiazol-4-yl)-1-azabicyclo (2.2.2]octane (-) D-tartrate]", "Conditioned Avoidance % Avoidance Responses": 6}
{"compound": "CCOc1nsnc1C1CN2CCC1CC2.O=C(O)/C=C/C(=O)O", "note": "(centres unmarked) [Compound 9, 3-(3-Ethoxy-1,2,5-thiadiazol-4-yl)-1-azabicyclo[2.2.2]octane fumarate]", "Conditioned Avoidance % Avoidance Responses": 65}
{"compound": "CCCCCCOc1nsnc1C1CN2CCC1CC2.O=C(O)/C=C/C(=O)O", "note": "(centres unmarked) [Compound 11, 3-(3-Hexyloxy-1,2,5-thiadiazol-4-yl)-1-azabicyclo[2.2.2]octane fumarate]", "Conditioned Avoidance % Avoidance Responses": 11}
{"compound": "CCCCSc1nsnc1C1CN2CCC1CC2.O=C(O)/C=C/C(=O)O", "note": "(centres unmarked) [Compound 13, 3-(3-Butylthio-1,2,5-thiadiazol-4-yl)-1-azabicyclo[2.2.2]octane fumarate]", "Conditioned Avoidance % Avoidance Responses": 18}
{"compound": "CCCCOc1nsnc1C1CN2CCC1CC2.O=C(O)C(=O)O", "note": "(centres unmarked) [Compound 46, 3-(3-Butoxy-1,2,5-thiadiazol-4-yl)-1-azabicyclo[2.2.2]octane oxalate]", "Conditioned Avoidance % Avoidance Responses": 30}
{"compound": "CCSc1nsnc1C1CN2CCC1CC2.O=C(O)C(=O)O", "note": "(centres unmarked) [Compound 52, 3-(3-Ethylthio-1,2,5-thiadiazol-4-yl)-1-azabicyclo[2.2.2]octane oxalate]", "Conditioned Avoidance % Avoidance Responses": 63}
{"compound": "CCCSc1nsnc1C1CN2CCC1CC2.O=C(O)C(=O)O", "note": "(centres unmarked) [Compound 53, 3-(3-Propylthio-1,2,5-thiadiazol-4-yl)-1-azabicyclo[2.2.2]octane oxalate]", "Conditioned Avoidance % Avoidance Responses": 41}
{"compound": "O=C(O)/C=C/C(=O)O.c1ccc(OCCSc2nsnc2C2CN3CCC2CC3)cc1", "note": "(centres unmarked) [Compound 102, 3-(3-(2-Phenoxyethylthio)-1,2,5-thiadiazol-4-yl)-1-azabicyclo[2.2.2) octane fumarate]", "Conditioned Avoidance % Avoidance Responses": 3}
{"compound": "N#CCSc1nsnc1C1CN2CCC1CC2.O=C(O)C(=O)O", "note": "(centres unmarked) [Compound 103, 3-(3-Cyanomethylthio-1,2,5-thiadiazol-4-yl)-1-azabicyclo[2.2.2]octane oxalate]", "Conditioned Avoidance % Avoidance Responses": 51}
{"compound": "O=C(O)/C=C/C(=O)O.c1csc(CCCSc2nsnc2C2CN3CCC2CC3)c1", "note": "(centres unmarked) [Compound 104, 3-(3-(3-(2-Thienyl)propylthio)-1,2,5-thiadiazol-4-yl)-1-azabicyclo[2.2.2]octane fumarate]", "Conditioned Avoidance % Avoidance Responses": 24}
{"compound": "Cn1nnnc1SCCCCSc1nsnc1C1CN2CCC1CC2", "note": "(centres unmarked) [Compound 106, oxalate]", "Conditioned Avoidance % Avoidance Responses": 55}
{"compound": "Cc1nnc(SCCCCSc2nsnc2C2CN3CCC2CC3)s1", "note": "(centres unmarked) [Compound 107, oxalate]", "Conditioned Avoidance % Avoidance Responses": 52}
{"compound": "CSc1nsnc1C1CN2CCC1CC2.O=C(O)C(=O)O", "note": "(centres unmarked) [Compound 131, 3-(3-Methylthio-1,2,5-thiadiazol-4-yl)-1-azabicyclo[2.2.2]octane oxalate]", "Conditioned Avoidance % Avoidance Responses": 53}
{"system": "conditioned avoidance responding", "assay": "Conditioned avoidance behavior in rats", "assay_type": "in vivo, rat", "conditions": "3.0 mg/kg s.c. 30 min before session, 50 trials, 3 mg/kg", "from_the_text": "as §1, §2, §3", "units": {"Conditioned Avoidance % Avoidance Responses": "%"}}
{"compound": "CCCCSc1nsnc1C1CN2CCCC1C2", "note": "(single isomer, unassigned) [Compound 111, (-)-Exo-6-(3-butylthio-1,2,5-thiadiazol-4-yl)-1-azabicyclo[3.2.1]octane (+) L-tartrate]", "Conditioned Avoidance % Avoidance Responses": 8}
{"compound": "CCCCSc1nsnc1C1CN2CCCC1C2", "note": "(single isomer, unassigned) [Compound 112, (+)-Exo-6-(3-butylthio-1,2,5-thiadiazol-4-yl)-1-azabicyclo[3.2.1]octane (-) D-tartrate]", "Conditioned Avoidance % Avoidance Responses": 2}
{"compound": "CCCSc1nsnc1C1CN2CCCC1C2", "note": "(single isomer, unassigned; (+)) [Compound 113, (+)-Exo-6-(3-propylthio-1,2,5-thiadiazol-4-yl)-1-azabicyclo[3.2.1]octane (+) L-tartrate]", "Conditioned Avoidance % Avoidance Responses": 19}
{"compound": "CCCSc1nsnc1C1CN2CCCC1C2", "note": "(single isomer, unassigned; (-)) [Compound 114, (-)-Exo-6-(3-propylthio-1,2,5-thiadiazol-4-yl)-1-azabicyclo[3.2.1]octane (-) D-tartrate]", "Conditioned Avoidance % Avoidance Responses": 39}
